These results are taken from patent US20210267240A1, “PHOTODETERIORATION INHIBITOR, BEVERAGE COMPRISING THE SAME, AND METHOD FOR INHIBITING PHOTODETERIORATION” (Mitsubishi Gas Chemical Company, Inc., priority 2018, published 2021).

The nature of the data set: Light irradiation storage test of aqueous pyrroloquinoline quinone disodium salt solution in a transparent PET container, HPLC recovery. Format: physicochemical. The settings on record: used alone, without combination partner. The method, then:
HPLC conditions: Shimadzu LC-2010 Column: YMC-Pack ODS-A Detection wavelength: 259 nm Mobile phase: 30 mM acetic acid-70 mM ammonium acetate Column temperature: 40° C. Light irradiation apparatus: A plant incubator CLH-301 manufactured by Tomy Seiko Co., Ltd. Light irradiation conditions: 30° C. and 20,000Lx All the contents of Volvic that is a commercially available PET bottle beverage, were removed and the container was washed with water. This transparent container was used as a storage container. 5 to 500 mg of BioPQQ was dissolved in 500 g of water, and the relationship between the concentration and the photodeterioration of BioPQQ was examined. First, a mixture of pyrroloquinoline quinone disodium salt and water was added to the storage container, shaken well, and then submitted to ultrasonication for 1 minute to dissolve the salt. The pH was 3.5. The prepared aqueous solution of pyrroloquinoline quinone disodium salt was stored under the above light irradiation conditions. The concentration of pyrroloquinoline quinone was analyzed by HPLC 5 days after the light irradiation. […] 20 mg of BioPQQ was dissolved in 500 g of water ([…]) in the same manner as described above. To this aqueous solution, 100 mg of Red No. 2 was further added (Example A1). […]

For `O=C1O[C@H]([C@@H](O)CO)C(O)=C1O` [ascorbic acid], the “photodeterioration inhibition effect (in words)” value is on record as “has a photodeterioration inhibition effect”.
